Assay results: patent US20230134859A1, “METHOD FOR SCREENING FOR, METHOD FOR PRODUCING, AND METHOD FOR DESIGNING DRUG ACTIVE INGREDIENTS” (SKY PHARMA CO., LTD., priority 2020, published 2023)

Experiments:
Type in all cases: in vivo
cardiomyocytes = test: Test Example 8: enhancement of myocardium in zebrafish embryo (nkx2.5 in situ hybridization, blood cells pumped per heartbeat); conditions: test compounds = Compounds 1 to 7
Experimental: Zebrafish embryos at 10 hours after fertilization were held with the dorsal side of the head up on a coffin (plastic plate with V-shaped grooves for holding), and a glass capillary was inserted into a midline between head and ear vesicles (heart primordium). Nitrogen gas pressure (15 picosiemens) was applied for 15 to 45 milliseconds and injected into the gap just below the neural tube. The test compound concentration was 100 μM/E3, and 0.025% (final concentration) phenol red was mixed as a tracer of the injection solution. The injection was performed in pulses with a foot pedal and continued until phenol red was distributed in an elliptical shape with a major axis of 200 μm from the insertion point. After injection, embryos were cultured at 28.5° C. for 14 hours in E3. After chorions were removed with tweezers, the embryos were fixed with 4% paraformaldehyde/PBS at normal temperature for 1 hour, and in situ hybridization was performed overnight at 65° C. in the presence of a DIG probe of nk×2.5 as a cardiac muscle marker according to a conventional method. After washing, cardiomyocytes were stained by an alkali phosphatase color reaction using an anti-DIG antibody. The stained embryos were washed with PBS, embedded in 75% glycerin/PBS and localized, and then microscopically photographed with incident light. The number of tested individuals was unified with n=80 for each compound.
In addition, the zebrafish embryos injected with the test compound by the above-described method were cultured at 28.5° C. until 48 hours after fertilization, embedded in 3% methyl cellulose/E3, and a moving image was photographed. The number of blood cells pumped in one heartbeat in time-lapse was counted n=15 and compared to Ringer injected individuals.

pancreatic β cells = test: Test Example 9: pancreatic β cells and insulin in transgenic zebrafish embryos; conditions: vs control
Experimental: Transgenic zebrafish expressing pancreatic β-cell GFP
Transgenic zebrafish embryos expressing pancreatic β-cell GFP at 10 hours after fertilization were held with the dorsal side of the head up on a coffin, and a glass capillary was inserted from the dorsal side into a gap just below the midline neural tube at about 2 times the distance between the rostral end and the ear vesicles to the caudal side (pancreatic primordium). A nitrogen gas pressure (15 picosiemens) was applied for 15 to 45 milliseconds, and the test compound was injected. The concentration of the test compound was 100 nM/E3, and 0.025% (final concentration) phenol red was mixed as a tracer of the infusion solution. The injection was performed in pulses with a foot pedal and continued until phenol red was distributed in an elliptical shape with a major axis of 200 μm from the insertion point.
The test compound (100 nM) was injected on a coffin in transgenic zebrafish embryos expressing pancreatic β-cell GFP at 10 hours after fertilization. After injection, embryos were cultured in E3 at 28.5° C. for 14 hours. After chorions were removed with tweezers, the embryos were fixed with 4% paraformaldehyde/PBS at room temperature for 1 hour, and in situ hybridization was performed overnight at 65° C. in the presence of a DIG probe of insulin (ins) according to a conventional method. After washing, β cells were stained by an alkali phosphatase color reaction using an anti-DIG antibody. After staining, the embryos were washed with PBS, embedded in 75% glycerin/PBS and localized, and then microscopically photographed with incident light. The number of test individuals was unified with n=100 for each test compound (FIG. 23).
Transgenic zebrafish embryos expressing pancreatic β-cell GFP at 10 hours after fertilization were injected with the test compound (100 nM or 5 nM) on the coffin. After injection, embryos were cultured in E3 at 28.5° C. for 20 hours in the presence of 0.2 mM phenylthiourea (PTU). After chorions were removed with tweezers, the embryos were fixed with 4% paraformaldehyde/PBS at normal temperature for 1 hour, immunohistochemically reacted with an anti-insulin antibody according to a conventional method, and then reacted with an Alexa fluor 488 anti-mouse IgG secondary antibody. The reacted embryos were washed with PBS, embedded in 75% glycerin/PBS and localized, and then microscopically photographed with 488 nm excitation light (FIG. 24). The number of tested individuals was unified with n=10 for each compound. The insulin amount was quantified by measuring the average fluorescence intensity in a circle with a radius of 100 μm centered on the fluorescence point (FIG. 25).

[1] = system: sox1α, sox2, sox3, and her6; test: Test Example 1: quantitative PCR of neural stem cell markers in brains of treated zebrafish; conditions: brain of treated zebrafish individuals; ΔΔCt; vs control
Experimental: Moreover, the brains of the treated zebrafish individuals were dissected and washed with sterile distilled water, and then crushed by pipetting or 1 ml syringe suction discharge with 18 G to 24 G needles in 500 μl of Sepasol-RNA I Super G (Nacalai Tesque). A deproteinization operation was conducted once by equivalent phenol/chloroform treatment and once by chloroform treatment, and the supernatant was subjected to RNA purification using an RNA purification column (RNeasy Plus Mini Kit, Qiagen). The elute was reverse-transcribed using a mixed primer of random hexamer and oligo-dT (ReverTra Ace qPCR Kit, TOYOBO) at 37° C. for 15 minutes and 98° C. for 5 minutes, and quantitative PCR of expression levels of sox1α, sox2, sox3, and her6, which are markers of neural stem cells, was performed. Quantitative PCR was performed with SYBER Green Realtime PCR Master Mix (TOYOBO). For the PCR reaction, ABI PRISM 7700 or LightCycler from Roche Diagnostics K.K. was used. Quantification was performed in 3 wells per identical sample (n=3). The obtained data was comparatively quantified by a ΔΔCt method using a normalizer (β-actin, GAPDH, 18S, or the like). In order to confirm that the quantitative reaction was reliable, it was confirmed that the amplification product was in a band by agarose electrophoresis.

Purkinje cells = test: Test Example 6: increase in Purkinje cells of adult mouse after injection into E11.5 fetal ventricle; conditions: test compounds = Compounds 1 to 7; 100 μM injected into E11.5 fetal ventricle, counted in adult mice; vs control; N=10
Experimental: A solution prepared by dissolving 100 μM of the test compound in physiological saline was injected into E11.5 mouse fetal ventricle. Brains of adult mouse individuals were fixed, and slice sections of cerebellar Purkinje cell layers were immunostained with an anti-d-Calbindin antibody, which is a marker of cell bodies and neurites of Purkinje cells. After staining, the number of Purkinje cells was counted, and the average value thereof was calculated.
As a control experiment (control), a similar experiment was performed using physiological saline containing no test compound.
The number of samples is 10 for each of Compounds 1 to 7 and control (N=10).

`CNS(=O)(=O)c1ccccc1Nc1nc(Nc2ccc(N3CCN(C)CC3)cc2OC)ncc1Cl` [Compound 7, 2-[[5-Chloro-2-[2-methoxy-4-(4-methylpiperazin-1-yl)anilino]pyrimidin-4-yl]amino]-N-methylbenzenesulfonamide] was tested, and the “amount of cardiomyocytes (in situ hybridization, nkx2.5)” value (cardiomyocytes; 100 μM injected at heart primordium 10 h after fertilization, vs control, n=80) was “increase in the amount of cardiomyocytes was observed”, the “stroke volume of blood cells (moving image of the heartbeat)” value (cardiomyocytes; 100 μM, 48 h after fertilization) was “remarkably improved” and the “number of blood cells pumped in one heartbeat” value (cardiomyocytes; 100 μM, 48 h after fertilization, vs control, n=15) was “remarkable increase in the number of blood cells pumped in one heartbeat”. For the same molecule, the “number of β cells (pancreatic β-cell GFP fluorescence)” value (pancreatic β cells; 100 nM injected at pancreatic primordium 10 h after fertilization, observed up to 48 h) was “increased as compared with the control individual”, the “production amount of insulin by β cells (in situ hybridization, ins probe)” value (pancreatic β cells; 100 nM, 14 h after injection, n=100) was “significantly increased as compared with the control individual” and the “expression levels of sox1α, sox2, sox3, and her6 (quantitative PCR)” value [1] was “significant increase in expression levels”. For the same molecule, the “number of Purkinje cells in the cerebellar Purkinje cell layers” value (Purkinje cells) was “significantly higher than that of the control”.
